Results reported in publication PMC8049054, “Systematic Assessment of Fragment Identification for Multitarget Drug Design” (Chemmedchem, 2021).

Target: T1, sEH-H (Homo sapiens, UniProt P34913)
T1 construct: For the expression of sEH-H and sEH-Fl transformed E.coli BL21 (DE3) cells were grown in 5052; made in house; host or cells: E. coli BL21 (DE3)
T1 sequence (P34913 235-555 limits assumed): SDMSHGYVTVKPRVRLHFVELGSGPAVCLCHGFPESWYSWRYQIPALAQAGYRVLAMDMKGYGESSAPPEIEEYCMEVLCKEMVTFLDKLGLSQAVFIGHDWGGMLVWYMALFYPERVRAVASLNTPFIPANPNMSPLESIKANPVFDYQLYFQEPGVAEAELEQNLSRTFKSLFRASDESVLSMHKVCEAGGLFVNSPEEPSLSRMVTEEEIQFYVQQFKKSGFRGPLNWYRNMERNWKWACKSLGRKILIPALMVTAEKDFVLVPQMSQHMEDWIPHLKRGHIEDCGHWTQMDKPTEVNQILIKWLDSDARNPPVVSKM
Assay: ITC measurement sEH-H
Assay type: binding
Details: 25 °C, read-out: sEH K d

Row | Kd | Compound
1 | 3500 nM | Oc1ccc(-c2ccc(F)cc2F)cc1 [Compound 9]
2 | 860 nM | Fc1ccc(-c2c[nH]c3ccccc23)cc1 [Compound 10]
